Entries after “also recorded” stand apart in the source; their conditions may differ.
Experiments:
[1] = test system: mouse embryonic fibroblast (MEF) cells; test: Par-4 secretion from normal mouse fibroblasts (Western blot of conditioned medium); assay type: cell-based
Procedure: In another aspect, the subject technology provides assays for screening test compounds that interfere with vimentin binding to PAR-4 or which cause release of vimentin-bound PAR-4. In a typical assay, cells, such as HEL cells, are seeded onto an appropriate support, such as 60-mm plates containing supplemented growth medium (e.g., supplemented with 0.1% serum) at a desired confluency, such as 40-70% confluency, and treated with the test compound (e.g., 500 nM) or control vehicle. The cells are allowed to grow for a period of time, such as 24 hours, after which the conditioned medium (CM) is concentrated (e.g., concentrated 30× to 100 μl using Millipore tubes (Amicon Ultra centrifugal filters, Ultracel-10K) by 15 min centrifugation at 4500 rpm). The concentrated CM is then subjected to co-immunoprecipitation using detectably labeled PAR-4 and vimentin antibodies in the presence of various concentrations of purified PAR-4 and the precipitated proteins are resolved by SDS-PAGE and analyzed by Western blot analysis. The amount of immunoprecipitated PAR-4-vimentin complex is compared to that of control samples. For example, chemiluminescent signals may be quantified in the BIO-RAD Molecular Imager ChemiDoc XRS+Imaging system using Quantity One software. Induction of Par-4 secretion by the test drug (e.g., 500 nM), as judged by this Western blot analysis procedure, will indicate dissociation of Par-4 from vimentin. […] For such experiments, cells may be treated with the test drug (e.g., 500 nM) or vehicle for an appropriate period of time, such as 24 hours, and then cell lysates are prepared and subjected to immunoprecipitation using an appropriate amount of a Par-4 antibody, vimentin antibody or control IgG antibody by using any standard immunoprecipitation procedure. Following […], the complexes are resolved, preferably by Western blot analysis as described above. If the drug inhibits the binding of Par-4 to vimentin, it will be reflected in the lack of co-immunoprecipitation of Par-4 with the vimentin antibody, and co-immunoprecipitation of vimentin with the Par-4 antibody.
Co-Immunoprecipitation and Western blot analysis: Protein extracted from cell lysates was filtered, pre-cleared with 25 μL (bed volume) of protein G-Sepharose beads and immunoprecipitated with 1 μg of respective antibodies. The eluted proteins were resolved by SDS-PAGE, and subjected to Western blot analysis as described.
To identify Par-4 secretagogues, we synthesized and screened 3-arylquinolines as well as related quinolones and quinothiolones for the secretion of Par-4 protein from normal fibroblasts under conditions that are not toxic to the cells.
We screened representative members of each of these heterocyclic families on a compound-by-compound basis for the secretion of Par-4 protein from normal mouse fibroblasts under conditions that were not toxic to the cells. Initial expectations were that these heterocycles would serve as Nutlin-3a surrogates and inhibit MDM2, but studies reported herein established a completely different mechanism of action, reflecting that the structural dissimilarities between these heterocycles and Nutlin-3a outweighed the similarities that led to their initial selection for screening.

[2] = test system: prostate cancer cells; test: Par-4 secretion from prostate cancer cells; assay type: cell-based; conditions: relative to vehicle control
[3] = test system: diverse cancer cells (lung cancer A549, H460, LLC1, KP7B; prostate cancer PC-3 MM2, DU145, LNCaP); test: Apoptosis by ICC for active caspase-3, cancer cells; assay type: cell-based, human, mouse
Procedure: (§1) Normal cells (MEFs, HELs, HBEC, PrE, prostate stromal cells PrS) or lung cancer cells (human A549 and H460, mouse LLC1 and KP7B) and prostate cancer cells (PC-3 MM2, DU145, LNCaP) were treated with the indicated amounts (0.5, 1 and 10 μM) of Arylquin 1 or vehicle (V) for 24 h, and apoptosis was determined by ICC for active caspase-3. Data shown represent mean values from three independent experiments±s.d. Asterisks (**) or (*) indicate statistical significance (P<0.0001) or (P<0.001), respectively, by the Student t test.
(§2) See Hebbar, N., Wang, C. & Rangnekar, V. M. J Cell Phys 227, 3715-3721 (2012) and Shrestha-Bhattarai, T., Hebbar, N. & Rangnekar, V. M. Cancer Cell 24, 3-5 (2013). A total of three independent experiments were performed; and approximately 500 cells were scored in each experiment for apoptosis under a fluorescent microscope. Cell surface GRP78 expression on the cancer cell surface was quantified by FACS analysis in the Flow Cytometry Shared Resource Facility, Markey Cancer Center as previously described. See Hebbar, N., Wang, C. & Rangnekar, V. M. J Cell Phys 227, 3715-3721 (2012).

[4] = test system: normal cells (MEFs, HELs, HBEC, PrE, PrS); test: Apoptosis by ICC for active caspase-3, normal cells; assay type: cell-based, human, mouse
Procedure: as §1, §2

[5] = test system: PC-3 cells; test: Apoptosis, PC-3 cells; assay type: cell-based, human; conditions: 500 nM
Procedure: as §2

[6] = test system: LNCaP; test: Apoptosis, LNCaP cells; assay type: cell-based, human; conditions: 500 nM
Procedure: as §2

[7] = test system: cancer cells co-cultured with Par-4-/- MEFs; test: Apoptosis in co-cultures of Par-4-/- MEFs and cancer cells; assay type: cell-based; conditions: 500 nM
Procedure: (§3) Top: Cancer cells were co-cultured with MEFs and treated with Arylquin 1 (500 nM) or vehicle and tested for apoptosis. Bottom: Serum from mice injected with Arylquin 1 (Aq) or corn oil vehicle (V), was examined by Western blot analysis (not shown). Aliquots of serum from these mice were either directly added to the growth medium of cells in culture, or incubated with the indicated antibody, and then added to the growth medium of PC-3 MM2 cells to test for apoptosis.
as §2

[8] = test system: cancer cell cultures (PC-3 MM2 cells); test: Ex vivo apoptosis of cancer cell cultures by serum from treated mice; assay type: in vivo, C57BL/6 mice (serum)
Procedure: as §3
Animal experiments: C57BL/6 mice were injected via the intraperitoneal route with Arylquin 1 (10 mg/kg body weight) or corn oil vehicle, and whole-blood samples were collected 24 h later. Serum was separated from the blood samples, heated at 56° C. to inactivate complement. Aliquots of the mouse serum samples were added to the growth medium (final 20% mouse serum) of normal and cancer cells in culture and tested for induction of ex vivo apoptosis in cancer cells. All animal procedures were performed with University of Kentucky IACUC approval.

**Q.** How did the Par-4 secretion ([1]; MEF cells) turn out when `CN(C)c1ccc2cc(-c3ccccc3F)c(N)nc2c1` [Arylquin 1, 3-(2-fluorophenyl)-N^7,N^7-dimethylquinoline-2,7-diamine] was run?
**A.** dose-dependent secretion

**Q.** What about the “level of Par-4 secretion, structure-activity comparison among analogs” value ([1]; normal mouse fibroblasts, conditions not toxic to the cells) of the same molecule?
**A.** most active; also recorded: highest levels of Par-4 secretion

**Q.** What about the Par-4 secretion [2] of the same molecule?
**A.** showed induction of Par-4 secretion

**Q.** What about the direct apoptosis ([3]; 500 nM) of the same molecule?
**A.** did not directly induce apoptosis

**Q.** What about the apoptosis ([3]; 0.5, 1 and 10 μM, 24 h) of the same molecule?
**A.** induced the dose-dependent apoptosis in cancer cells

**Q.** What about the direct apoptosis ([4]; 500 nM) of the same molecule?
**A.** did not directly induce apoptosis

**Q.** And the apoptosis ([4]; 0.5, 1 and 10 μM, 24 h)?
**A.** not in normal cells

**Q.** What about the apoptosis [5] of the same molecule?
**A.** induced apoptosis

**Q.** What about the apoptosis [6] of the same molecule?
**A.** not in LNCaP or DU145 cells

**Q.** What about the “apoptosis of cancer cells in co-culture” value [7] of the same molecule?
**A.** did not induce apoptosis

**Q.** What about the “pro-apoptotic activity in serum after Par-4 antibody” value ([8]; serum incubated with Par-4 antibody) of the same molecule?
**A.** neutralized by the Par-4 antibody

**Q.** What about the “ex vivo apoptosis of cancer cell cultures by serum” value ([8]; serum of treated vs vehicle-treated mice, final 20% mouse serum) of the same molecule?
**A.** significantly higher (P<0.001) ex vivo apoptosis

— patent publication US9873670B2, “Arylquinoline and analog compounds and use thereof to treat cancer” (UNIVERSITY OF KENTUCKY RESEARCH FOUNDATION, priority 2013, dated 2018)
